# “And” between values parts separate entries of the source, which are not always exact repeats. Identical values can stand only once.
# Tested on: brown planthoppers, Nilaparvata lugens
# Assay: Field efficacy on brown planthopper in transplanted rice (small-plot trials A-D)
# Type: in vivo
# Conditions: Sulfoxaflor 50 g/ha, Chlorpyrifos 500 g/ha, mixture 50 + 500 g/ha; for % Control: Trial A
# Experimental: Applications were made to transplanted rice, Oryza sativa, using standard small-plot efficacy methods. Chemicals were diluted in water and all treatments were applied using a backpack sprayer calibrated to deliver 500 liters of spray per hectare. Experimental plots measured 5 by 10 meters and each treatment was replicated three times in each trial. At the specified intervals after treatment, brown planthoppers, Nilaparvata lugens, were counted in 10 randomly selected hills per plot. Data were transformed to percent control relative to the untreated plots, then subjected to analysis of variance, and means were separated using Tukey's HSD (p=0.1). Expected control was calculated using the method of Colby and compared to observed control. See the Table Section for the results of the Field Trials.
SMILES,% Control (10 DAT),"% Control at DAT (Trial B, 10 DAT)","% Control (1 DAT, relative to untreated plots)",% Control (3 DAT),% Control (7 DAT),% Control (15 DAT),"% Control at DAT (Trial B, 1 DAT)","% Control at DAT (Trial B, 3 DAT)","% Control at DAT (Trial B, 7 DAT)","% Control at DAT (Trial B, 15 DAT)","% Control at DAT (Trial C, 1 DAT)","% Control at DAT (Trial C, 3 DAT)","% Control at DAT (Trial C, 7 DAT)","% Control at DAT (Trial C, 10 DAT)","% Control at DAT (Trial C, 15 DAT)","% Control at DAT (Trial D, 1 DAT)","% Control at DAT (Trial D, 7 DAT)","% Control at DAT (Trial D, 10 DAT)","% Control at DAT (Trial D, 15 DAT)"
CC(c1ccc(C(F)(F)F)nc1)S(C)(=O)=NC#N (stereo not drawn) [Sulfoxaflor],6.8%,48.2%,,,,,,,,,,,,,,,,,
CCOP(=S)(OCC)Oc1nc(Cl)c(Cl)cc1Cl [Chlorpyrifos],7.8 b % and 7.8%,39.8 b % and 39.8%,13.7 bc % and 13.7%,37.5 b % and 37.5%,32.4 b % and 32.4%,21.0 b % and 21%,45.2 ab % and 45.2%,64.8 b % and 64.8%,54.0 b % and 54%,57.8 b % and 57.8%,53.4 ab % and 53.4%,67.0 b % and 67%,59.7 b % and 59.7%,10.5 b % and 10.5%,37.9 b % and 37.9%,59.6 c % and 59.6%,53.8 c % and 53.8%,18.2 c % and 18.2%,27.0 c % and 27%

# — patent publication US20120283100A1, “CONTROLLING PLANTHOPPERS” (priority 2011, published 2012)
